For experiment [1], the target named is T1, human TRPV1 (Homo sapiens, UniProt Q8NER1).
T1 construct: expressed in transfected cells
The experiment can be described thus: Capsaicin Activation Assay (FLIPR intracellular Ca2+, recombinant HEK293 cells). Particulars: recombinant HEK293 cells expressing hTRPV1; 50 nM capsaicin; read-out: human TRPV1 capsaicin IC50. Format: cell-based.

Experiment [2] relates to rats. The experiment can be described thus: Sodium Iodoacetate-Induced Knee Joint Osteoarthritic Pain Model (hind limb grip force). Format: in vivo. The note with it: rat, 1 hour after administration, 20 days after sodium iodoacetate, read-out: % effect (% return to normalcy of hind limb grip force); for inhibition in vivo at 100 µmol/kg: 100 μmol/kg po single dose; for inhibition in vivo at 30 µmol/kg: 30 μmol/kg po single dose. Here is the method: (v) Sodium Iodoacetate-Induced Knee Joint Osteoarthritic Pain Model
Unilateral knee joint osteoarthritis was induced in the rats by a single intra-articular (i.a.) injection of sodium iodoacetate (3 mg in 0.05 mL sterile isotonic saline) into the right knee joint cavity under light isoflurane anesthesia using a 26G needle. […] Pain behavioral assessment of hind limb grip force was conducted by recording the maximum compressive force exerted on the hind limb strain gauge setup, in a commercially available grip force measurement system (Columbus Instruments, Columbus, Ohio). The grip force data was converted to a maximum hindlimb cumulative compressive force (CFmax) (gram force)/kg body weight for each animal. The analgesic effects of test compounds were determined 20 days following the i.a. injection of sodium iodoacetate. The vehicle control group for each compound being tested was assigned 0% whereas the age matched naïve group was assigned as being 100% (normal). The % effect for each dose group was then expressed as % return to normalcy compared to the naïve group. Test compounds were administered orally in 10% ethanol/20% Tween 80/70% polyethylene glycol-400 vehicle at a volume of 2 mL/kg. The assessment of the analgesic effects of test compounds was made 1 hour following oral administration. The assessment of the analgesic effects of test compounds can be made following a single dose or following repeated administration wherein the frequency of dosing is 1 to 2 times daily. The duration of such repeated daily dosing may last for any time greater than one day. A typical duration of repeated daily dosing is about 5 days to about 12 days.

Experiment [3] addresses T1, human TRPV1. The experiment can be described thus: Acid Activation Assay (pH 5.0, FLIPR intracellular Ca2+, recombinant HEK293 cells). It is filed as cell-based. The note with it: percentage of maximal pH 5.0-induced response remaining; HEK293 hTRPV1; max concentration 37.5 μM. The method in brief:
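HEK293 cells stably expressing recombinant hTRPV1 were loaded with calcium dye for 90-120 min at 25° C and pre-treated with compound for 3 min before a pH 5.0 (DPBS/MES) challenge. Peak FLIPR fluorescence over baseline is given as percentage of the maximal pH 5.0-induced response.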

Experiment [4] deals with rats. The experiment can be described thus: Rat Acute Capsaicin-Induced Flinching Behavior. It is filed as in vivo. Particulars: 100 μmol/kg oral, capsaicin 2.5 μg one hour after compound, five minute observation. The protocol: (iv) Rat Acute Capsaicin-Induced Flinching Behavior
Rats were placed in individual observation cages. Following an acclimation period of 30 minutes, selected compounds were administered orally at a dose of 100 μmol/kg orally in a vehicle (10% ethanol/20% Tween 80/70% polyethylene glycol-400) at a volume of 2 mL/kg. One hour after administration of the compound, 2.5 μg of capsaicin in a 10 μL solution of 10% ethanol/90% hydroxypropyl-β-cyclodextrin was injected subcutaneously into the dorsal aspect of the right hind paw. The observation cage was then suspended above mirrors in order to facilitate observation. […] The number of flinching behaviors of the injured paw was recorded during the five minute observation period (Gilchrist, H. D.; Allard, B. L.; Simone, D. A.; Enhanced withdrawal responses to heat and mechanical stimuli following intraplantar injection of capsaicin in rats. Pain, 1996, 67, 179-188). The percent reduction in the number of flinching behaviors produced from oral administration of the test compounds relative to control-treated animals (% effect) is reported in Table 2.

T1 sequence (Q8NER1 whole entry): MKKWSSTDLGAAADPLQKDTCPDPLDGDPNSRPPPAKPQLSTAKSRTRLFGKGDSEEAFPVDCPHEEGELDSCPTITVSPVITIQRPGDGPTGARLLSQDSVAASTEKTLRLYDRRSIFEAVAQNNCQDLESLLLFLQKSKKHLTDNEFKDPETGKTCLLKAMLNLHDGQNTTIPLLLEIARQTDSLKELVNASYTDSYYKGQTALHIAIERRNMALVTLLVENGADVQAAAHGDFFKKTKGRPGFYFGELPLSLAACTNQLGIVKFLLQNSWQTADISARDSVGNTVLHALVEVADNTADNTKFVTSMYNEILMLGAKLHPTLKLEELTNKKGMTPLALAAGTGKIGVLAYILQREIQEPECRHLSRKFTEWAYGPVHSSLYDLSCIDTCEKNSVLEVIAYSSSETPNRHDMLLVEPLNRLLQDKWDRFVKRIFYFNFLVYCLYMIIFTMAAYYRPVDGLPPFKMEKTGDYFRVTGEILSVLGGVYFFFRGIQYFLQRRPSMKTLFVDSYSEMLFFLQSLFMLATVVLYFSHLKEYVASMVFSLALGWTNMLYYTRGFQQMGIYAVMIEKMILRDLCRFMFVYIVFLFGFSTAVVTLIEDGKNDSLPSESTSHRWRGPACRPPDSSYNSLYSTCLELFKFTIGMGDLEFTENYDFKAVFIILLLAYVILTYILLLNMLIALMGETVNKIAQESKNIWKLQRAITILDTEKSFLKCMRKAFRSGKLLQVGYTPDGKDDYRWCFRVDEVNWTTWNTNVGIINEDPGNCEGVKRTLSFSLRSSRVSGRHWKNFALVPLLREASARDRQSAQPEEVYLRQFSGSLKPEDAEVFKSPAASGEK

As to `CC1(C)C[C@@H](NC(=O)Nc2cccc3c2C[C@H](O)C3)c2ccc(F)cc2O1` [Example 5, 1-[(4R)-7-fluoro-2,2-dimethyl-3,4-dihydro-2H-chromen-4-yl]-3-[(2R)-2-hydroxy-2,3-dihydro-1H-inden-4-yl]urea], the half-maximal inhibitory concentration (IC50) on human TRPV1 [1] was 32 nM. In addition, in the experiment on rats [2], the inhibition in vivo at 100 µmol/kg is 57%. In addition, the “human TRPV1 H+ (max % remain)” value at human TRPV1 [3] turned out to be 76%.

On to `CC1(C)C[C@@H](NC(=O)Nc2cccc3c2C[C@H](O)C3)c2ccc(F)c(Cl)c2O1` [Example 12, 1-[(4R)-8-chloro-7-fluoro-2,2-dimethyl-3,4-dihydro-2H-chromen-4-yl]-3-[(2R)-2-hydroxy-2,3-dihydro-1H-inden-4-yl]urea], for which the IC50 on human TRPV1 [1] is 36 nM. In addition, the “human TRPV1 H+ (max % remain)” value on human TRPV1 [3] was 77%. For the same molecule, the “% effect (percent reduction in number of flinching behaviors relative to control-treated animals)” value in the experiment with rats [4] was 53%.

In the case of `CC1(C)C[C@@H](NC(=O)Nc2cccc3c2C[C@@H](O)C3)c2cccc(OC(F)(F)F)c2O1` [Example 88, 1-[(4R)-2,2-dimethyl-8-(trifluoromethoxy)-3,4-dihydro-2H-chromen-4-yl]-3-[(2S)-2-hydroxy-2,3-dihydro-1H-inden-4-yl]urea], the IC50 at human TRPV1 [1] was determined as 16 nM. Moreover, at human TRPV1 [3], the “human TRPV1 H+ (max % remain)” value came to 23%. Moreover, the “% effect (percent reduction in number of flinching behaviors relative to control-treated animals)” value in the experiment on rats [4] is 69%.

Consider `CC1(C)C[C@@H](NC(=O)Nc2cccc3c2C[C@H](O)C3)c2ccc(Cl)c(F)c2O1` [Example 10, 1-[(4R)-7-chloro-8-fluoro-2,2-dimethyl-3,4-dihydro-2H-chromen-4-yl]-3-[(2R)-2-hydroxy-2,3-dihydro-1H-inden-4-yl]urea], for which the IC50 at human TRPV1 [1] was found to be 27 nM. Besides, the inhibition in vivo at 17 µmol/kg in the experiment with rats [2] (17 μmol/kg po single dose) amounted to 49%. The “human TRPV1 H+ (max % remain)” value at human TRPV1 [3] is reported as 74%.

With `O=C(Nc1cccc2c1C[C@H](O)C2)N[C@@H]1CCc2cc(C(F)(F)F)ccc21` [Example 40, 1-[(2R)-2-hydroxy-2,3-dihydro-1H-inden-4-yl]-3-[(1R)-5-(trifluoromethyl)-2,3-dihydro-1H-inden-1-yl]urea], on human TRPV1 [1], the IC50 is 7 nM. In the experiment with rats [2], the inhibition in vivo at 30 µmol/kg is 57%. Moreover, the “human TRPV1 H+ (max % remain)” value at human TRPV1 [3] was determined as 30%.

As for `O=C(Nc1cccc2c1C[C@H](O)C2)N[C@@H]1CC(CF)(CF)Oc2cc(C(F)(F)F)ccc21` [Example 7, 1-[(4R)-2,2-bis(fluoromethyl)-7-(trifluoromethyl)-3,4-dihydro-2H-chromen-4-yl]-3-[(2R)-2-hydroxy-2,3-dihydro-1H-inden-4-yl]urea], the concentration for half-maximal inhibition (IC50) at human TRPV1 [1] was found to be 47 nM. Besides, in the experiment on rats [2], the inhibition in vivo at 100 µmol/kg is 68%. The “human TRPV1 H+ (max % remain)” value on human TRPV1 [3] turned out to be 48%. In addition, the “% effect (percent reduction in number of flinching behaviors relative to control-treated animals)” value with rats [4] was 94%.

As to `C[C@]1(CF)C[C@@H](NC(=O)Nc2cccc3c2C[C@H](O)C3)c2ccc(C(F)(F)F)cc2O1` [Example 43, 1-[(2R,4R)-2-(fluoromethyl)-2-methyl-7-(trifluoromethyl)-3,4-dihydro-2H-chromen-4-yl]-3-[(2R)-2-hydroxy-2,3-dihydro-1H-inden-4-yl]urea], the concentration for half-maximal inhibition (IC50) on human TRPV1 [1] turned out to be 18 nM. For the same molecule, in the experiment on rats [2], the inhibition in vivo at 30 µmol/kg was determined as 38%. Also, the “human TRPV1 H+ (max % remain)” value at human TRPV1 [3] stood at 48%.

Consider `O=C(Nc1cccc2c1C[C@H](O)C2)N[C@@H]1CCOc2cc(OC(F)(F)F)ccc21` [Example 14, 1-[(2R)-2-hydroxy-2,3-dihydro-1H-inden-4-yl]-3-[(4R)-7-(trifluoromethoxy)-3,4-dihydro-2H-chromen-4-yl]urea], for which the half-maximal inhibitory concentration (IC50) at human TRPV1 [1] turned out to be 44 nM. In addition, in the experiment with rats [2], the inhibition in vivo at 30 µmol/kg is 54%. Also, the “human TRPV1 H+ (max % remain)” value at human TRPV1 [3] is reported as 48%.

`CC1(C)C[C@@H](NC(=O)Nc2cccc3c2C[C@H](O)C3)c2ccc(Cl)cc2O1` [Example 13, 1-[(4R)-7-chloro-2,2-dimethyl-3,4-dihydro-2H-chromen-4-yl]-3-[(2R)-2-hydroxy-2,3-dihydro-1H-inden-4-yl]urea]: the IC50 on human TRPV1 [1] is 28 nM. For the same molecule, the inhibition in vivo at 30 µmol/kg in the experiment on rats [2] was 52%. Also, on human TRPV1 [3], the “human TRPV1 H+ (max % remain)” value came to 62%.

Consider `O=C(Nc1cccc2c1C[C@H](O)C2)N[C@@H]1CC(CF)(CF)Oc2cc(Cl)ccc21` [Example 4, 1-[(4R)-7-chloro-2,2-bis(fluoromethyl)-3,4-dihydro-2H-chromen-4-yl]-3-[(2R)-2-hydroxy-2,3-dihydro-1H-inden-4-yl]urea], for which the 50% inhibitory concentration (IC50) on human TRPV1 [1] is 40 nM. Also, in the experiment on rats [2], the inhibition in vivo at 100 µmol/kg was 67%. Besides, on human TRPV1 [3], the “human TRPV1 H+ (max % remain)” value was 57%. Moreover, the “% effect (percent reduction in number of flinching behaviors relative to control-treated animals)” value with rats [4] was 54%.

Regarding `CC1(C)C[C@@H](NC(=O)Nc2cccc3c2C[C@H](O)C3)c2ccc(F)c(F)c2O1` [Example 9, 1-[(4R)-7,8-difluoro-2,2-dimethyl-3,4-dihydro-2H-chromen-4-yl]-3-[(2R)-2-hydroxy-2,3-dihydro-1H-inden-4-yl]urea], the IC50 at human TRPV1 [1] amounted to 60 nM. Besides, the inhibition in vivo at 100 µmol/kg in the experiment with rats [2] came out at 67%. Besides, the “human TRPV1 H+ (max % remain)” value at human TRPV1 [3] amounted to 82%. Moreover, the “% effect (percent reduction in number of flinching behaviors relative to control-treated animals)” value in the experiment with rats [4] is 76%.

On to `O=C(Nc1ccc(F)c2c1C[C@H](O)C2)N[C@@H]1CCOc2c(OC(F)(F)F)cccc21` [Example 137, 1-[(2S)-7-fluoro-2-hydroxy-2,3-dihydro-1H-inden-4-yl]-3-[(4R)-8-(trifluoromethoxy)-3,4-dihydro-2H-chromen-4-yl]urea], for which, at human TRPV1 [1], the IC50 came out at 350 nM. Besides, on human TRPV1 [3], the “human TRPV1 H+ (max % remain)” value came to 4%.

Consider `O=C(Nc1cccc2c1C[C@H](O)C2)N[C@@H]1CC(CF)(CF)Oc2cc(Br)ccc21` [Example 45, 1-[(4R)-7-bromo-2,2-bis(fluoromethyl)-3,4-dihydro-2H-chromen-4-yl]-3-[(2R)-2-hydroxy-2,3-dihydro-1H-inden-4-yl]urea], for which, at human TRPV1 [1], the half-inhibitory concentration (IC50) is 43 nM. For the same molecule, the “human TRPV1 H+ (max % remain)” value on human TRPV1 [3] amounted to 58%.

On to `CC1(C)C[C@@H](NC(=O)Nc2cccc3c2C[C@@H](O)C3)c2ccc(F)cc2O1` [Example 32, 1-[(4R)-7-fluoro-2,2-dimethyl-3,4-dihydro-2H-chromen-4-yl]-3-[(2S)-2-hydroxy-2,3-dihydro-1H-inden-4-yl]urea], for which the IC50 at human TRPV1 [1] was determined as 74 nM. Moreover, on human TRPV1 [3], the “human TRPV1 H+ (max % remain)” value is reported as 33%.

Turning to `O=C(Nc1cccc2c1C[C@H](O)C2)N[C@@H]1CC2(CCC2)Oc2ccc(F)cc21` [Example 8, 1-[(4R)-6-fluoro-3,4-dihydrospiro[chromene-2,1′-cyclobutan]-4-yl]-3-[(2R)-2-hydroxy-2,3-dihydro-1H-inden-4-yl]urea], on human TRPV1 [1], the half-inhibitory concentration (IC50) turned out to be 35 nM. For the same molecule, the “human TRPV1 H+ (max % remain)” value on human TRPV1 [3] was determined as 50%.

On to `CC1(C)C[C@@H](NC(=O)Nc2ccc(F)c3c2C[C@H](O)C3)c2ccc(C(F)(F)F)cc2O1` [Example 140, 1-[(4R)-2,2-dimethyl-7-(trifluoromethyl)-3,4-dihydro-2H-chromen-4-yl]-3-[(2S)-7-fluoro-2-hydroxy-2,3-dihydro-1H-inden-4-yl]urea], for which, at human TRPV1 [1], the 50% inhibitory concentration (IC50) stood at 58 nM. In addition, the “human TRPV1 H+ (max % remain)” value on human TRPV1 [3] came out at 2%.

Consider `O=C(Nc1cccc2c1C[C@H](O)C2)N[C@H]1COc2ccc(Cl)cc2C1` [Example 89, 1-[(3R)-6-chloro-3,4-dihydro-2H-chromen-3-yl]-3-[(2R)-2-hydroxy-2,3-dihydro-1H-inden-4-yl]urea], for which the 50% inhibitory concentration (IC50) on human TRPV1 [1] came to 560 nM. In addition, the “human TRPV1 H+ (max % remain)” value at human TRPV1 [3] is on record as 91%.

For the molecule “1-[(4R)-7-fluoro-2,2-dimethyl-3,4-dihydro-2H-chromen-4-yl]-3-[(2R)-7-fluoro-2-hydroxy-2,3-dihydro-1H-inden-4-yl]urea [Example 158]”, the half-inhibitory concentration (IC50) on human TRPV1 [1] is 600 nM. The “human TRPV1 H+ (max % remain)” value at human TRPV1 [3] is recorded as 48%.

The values above are taken from patent publication US8859584B2, “TRPV1 antagonists” (AbbVie Inc., priority 2011, dated 2014).
